“Also recorded” adds a separate entry of the source.
What was measured:
[1] = test system: kidney cells; assay: phage binding assay on kidney primary cells; design: species or system mice; conditions: t test, p<0.02
Description: Phage binding to primary cells was performed as follows. Briefly, Balb/c mice (Harlan Sprague Dawley) were anesthetized with 0.017 ml/g of Avertin as described in Gardner et al., Lab. Animal Sci. 45:199-204 (1995), which is incorporated herein by reference. Under deep anesthesia, mice were perfused through the heart with 10 ml Dulbecco's modified Eagle's medium (DMEM; Irvine Scientific; Santa Ana, Calif.). The lungs, kidneys and brain were then collected, minced, placed in 2 ml of DMEM containing 0.5% BSA (Intergen; Purchase, N.Y.) and 0.5 μg/ml collagenase V (SIGMA) and incubated at 37° C. for 25 minutes. Following collagenase treatment, the tissue was forced through a […] pore cell strainer (Becton Dickinson; Franklin Lake, N.J.). The filtered cells were washed once with 10 ml DMEM supplemented with 10% serum. […] To ensure an equal input of the different phage to be tested, phage were titered several times using K91Kan bacteria (Smith and Scott, supra, 1993).
For the binding reaction, 10^9 transducing units (TU) of phage were incubated with 5×10^6 cells in 1 ml DMEM supplemented with 10% serum. The binding was performed at 4° C. for 2 hours with gentle agitation. […] Plates were incubated at 37° C. overnight before the colonies were counted (transducing units, TU).

[2] = test system: C8161 human melanoma cells; assay: experimental lung metastasis of C8161 human melanoma cells; type: in vivo, mice; conditions: 10^5 C8161 cells coadministered with 250 μg peptide, tail vein; five weeks after injection; listed as GFE-1
Description: Experimental lung metastasis was induced in mice using C8161 human melanoma cells essentially as described in Arap et al., Science 279:377-380 (1998) and Pasqualini et al., Nature Med. 11:1197-1203, each of which is incorporated herein by reference. Briefly, C8161 cells were cultured to 75% confluence and then collected with 2.5 mM EDTA/PBS. The C8161 cancer cells were injected into the tail vein of female nude BALB/c mice (two months old) at a concentration of 10^5 cells per animal. Two sets of five mice were injected with the cells alone; cells with 250 μg control CARAC peptide (SEQ ID NO: 443) or cells with 250 μg GFE-1 peptide (SEQ ID NO: 1). Each injection was in a total volume of 200 μl.
Mice were sacrificed five weeks after injection, and the lungs collected and weighed.

[3] = target: T1, 55 kDa lung vascular surface protein (Mus musculus, UniProt P31428); assay: peptide affinity chromatography of in vivo biotinylated lung extract; type: binding; conditions: elution with GFE-1 peptide
T1 construct: from tissue; host or cells: Balb/c mouse lung, in vivo biotinylated, octylglucoside extract
T1 sequence (P31428 17-384): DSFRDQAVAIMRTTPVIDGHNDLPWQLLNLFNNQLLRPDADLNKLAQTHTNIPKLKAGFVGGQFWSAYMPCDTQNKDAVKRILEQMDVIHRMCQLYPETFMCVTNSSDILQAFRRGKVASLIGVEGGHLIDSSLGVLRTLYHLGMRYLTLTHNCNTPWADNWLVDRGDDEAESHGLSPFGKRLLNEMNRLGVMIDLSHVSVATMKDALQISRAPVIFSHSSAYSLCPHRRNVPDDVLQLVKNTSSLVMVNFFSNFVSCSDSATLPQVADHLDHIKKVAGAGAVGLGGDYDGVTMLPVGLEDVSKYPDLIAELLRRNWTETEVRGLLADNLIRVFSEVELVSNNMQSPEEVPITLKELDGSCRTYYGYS
Description: In vivo biotinylation of endothelial cell surface proteins was performed as previously described in De La Fuente et al., Am. J. Physiol. […] Briefly, Balb/c mice were anesthetized with Avertin and perfused slowly through the heart for 10 to 15 minutes with approximately 15 ml of PBS containing 0.5 mg/ml of sulfo-NHS-LC-biotin (Pierce; Rockford, Ill.). Well perfused lungs or control tissues such as brain were then collected and incubated on ice for 20 minutes. The tissues were then homogenized for preparation of extracts as described further below.
For preparation of extracts, mouse or rat lungs were first minced and then homogenized with a Brinkman homogenizer (Brinkman; Wesbury, N.Y.) in a minimal volume (2.5 ml/g of tissue) of cold PBS containing 100 mM N-octyl-β-D-glucopyranoside (Calbiochem; La Jolla, Calif.) with 1 mM phenylmethylsulfonyl fluoride (PMSF), 20 μg/ml aprotinin and 1 μg/ml leupeptin (PBS/octylglucoside). The homogenized tissue was incubated on ice for 2 hours, and then centrifuged at 12,000×g for 30 minutes to remove cell debris. The pooled supernatants were cleared of any debris prior to affinity chromatogaphy.
All steps were performed at 4° C. […] The matrix contained approximately 2 mg/ml of peptide. […] The extract was applied to the column, and the flow-through re-applied over a period of 90 minutes. The column was then washed with 20 volumes of column buffer. […]

## CGFECVRQCPERC [lung homing peptide]
[1]
  phage binding to kidney cells relative to fd-tet: higher than fd-tet binding
[2]
  lung metastasis (lung weight): inhibit experimental lung metastasis; also recorded: significantly less; also recorded: inhibits lung metastasis of human melanoma cells
[3]
  binding of lung surface protein to peptide affinity column: a 55 kDa biotinylated protein was selectively eluted; also recorded: specifically binds to a 55 kDa lung vascular surface protein
